Results as given in patent US20260193268A1, “TRICYCLIC PI3Ka INHIBITOR, PREPARATION METHOD THEREFOR, AND PHARMACEUTICAL USE THEREOF” (WIGEN BIOMEDICINE TECHNOLOGY (SHANGHAI) CO., LTD., priority 2022, published 2026).
Read-outs that look alike come from different tables or passages of the source.

Assays:
[1] = system: HCC1954 cells (with PI3Kα H1047R mutation); assay: In vitro inhibition of HCC1954 cell proliferation (CellTiter-Lumi); assay type: cell-based; settings: Homo sapiens, HCC1954, 144 h, read-out: Inhibitory activity against HCC1954 cells (IC50)
Description: Assay for In Vitro Inhibition of HCC1954 Cell Proliferation by Compounds of the Present Disclosure
The growth of the cells was evaluated, and the IC50 for the inhibition of cell growth by the compounds was calculated.

[2] = system: MCF-7 cells (with PI3Kα E545K mutation); assay: In vitro inhibition of MCF-7 cell proliferation (CellTiter-Lumi); assay type: cell-based; settings: Homo sapiens, MCF7, 144 h, numeric values, read-out: Inhibitory activity against MCF-7 cells (IC50)
Description: Biological Example 3. Assay for In Vitro Inhibition of MCF-7 Cell Proliferation by Compounds of the Present Disclosure
MCF-7 cells (with PI3Kα E545K mutation) were seeded into a 384-well plate (Fisher 142762) at 2000 cells per well. The next day, serially diluted compounds were added, and 144 h after the addition, CellTiter-Lumi (Beyotime C0068XL) was added to measure the ATP content in the cells. The growth of the cells was evaluated, and the IC50 for the inhibition of cell growth by the compounds was calculated.

[3] = HCC1954 cells, 144 h, CellTiter-Lumi, numeric values

| SMILES | IC50 [1, 3] | IC50 [2] | IC50 [1] |
| --- | --- | --- | --- |
| C=C(C)C(=O)Nc1ccc(N2CC(N3CCN(c4ccc5c(c4)-c4nc(N6C(=O)OC[C@H]6C(F)F)cn4CCO5)CC3)C2)cc1 [Compound 100] | 66 nM | 22 nM | – |
| C/C=C/C(=O)Nc1ccc(N2CC(N3CCN(c4ccc5c(c4)-c4nc(N6C(=O)OC[C@H]6C(F)F)cn4CCO5)CC3)C2)cc1 [Compound 101] | 83 nM | 38 nM | – |
| C=CC(=O)Nc1ccc(N2CC(N3CCN(c4cc5c(cc4F)OCCn4cc(N6C(=O)OC[C@H]6C(F)F)nc4-5)CC3)C2)cc1 [Compound 102] | 232 nM | 23 nM | – |
| C=CC(=O)Nc1ccc(N2CC(N3CC=C(c4ccc5c(c4)-c4nc(N6C(=O)OC[C@H]6C(F)F)cn4CCO5)CC3)C2)cc1 [Compound 103] | 23 nM | 2 nM | – |
| C=CC(=O)Nc1ccc(N2CC(N3CCC(c4ccc5c(c4)-c4nc(N6C(=O)OC[C@H]6C(F)F)cn4CCO5)CC3)C2)cc1 [Compound 104] | 65 nM | 4.6 nM | – |
| C=CC(=O)N1CCC(N2CC(N3CCN(c4ccc5c(c4)-c4nc(N6C(=O)OC[C@H]6C(F)F)cn4CCO5)CC3)C2)CC1 [Compound 105] | 620 nM | 23 nM | – |
| C=CC(=O)Nc1ccc(N2CC(N3CCN(c4ccc5c(c4)-c4nc(N6C(=O)SC[C@H]6C(F)F)cn4CCO5)CC3)C2)cc1 [Compound 106] | 6 nM | 0.14 nM | – |
| C=CC(=O)Nc1ccc(N2CC(N3CCC4(c5ccc6c(c5)-c5nc(N7C(=O)OC[C@H]7C(F)F)cn5CCO6)CC4C3)C2)cc1 (some centres unmarked) [Compound 107] | – | 16 nM | 131 nM |
| C=CC(=O)Nc1ccc(N2CC(N3CCN(c4ccc5c(c4)-c4nc(-c6nc(C)nn6C(C)C)cn4CCO5)CC3)C2)cc1 [Compound 111] | 2.5 nM | 0.1 nM | – |
| C=CC(=O)Nc1ccc(N2CC(N3CCN(c4ccc5c(c4)-c4nc(N6C(=O)OC[C@H]6C(F)F)cn4CCO5)CC3)C2)cn1 [Compound 121] | 3 nM | 0.2 nM | – |
| C=CC(=O)Nc1ccc(N2CC(N3CCN(c4ccc5c(c4)-c4nc(N6C(=O)OC[C@H]6C(F)F)cn4CCO5)CC3)C2)nc1 [Compound 122] | 7 nM | 0.4 nM | – |
| C=CC(=O)Nc1ccc(N2CC(N3CCN(c4ccc5c(c4)-c4nc(N6C(=O)OC[C@H]6C(F)F)cn4CCO5)CC3)C2)c(F)c1 [Compound 123] | 5.3 nM | 0.9 nM | – |
| C=CC(=O)Nc1ccc(N2CC(N3CCN(c4ccc5c(c4)-c4nc(N6C(=O)OC[C@H]6C(F)F)cn4CCO5)CC3)C2)cc1F [Compound 124] | 9 nM | 2.7 nM | – |
| C=CC(=O)Nc1ccc(N2CC(N3CCN(c4ccc5c(c4)-c4nc(N6C(=O)OC[C@H]6C(F)F)cn4CCO5)CC3)C2)c(C)c1 [Compound 129] | 6.9 nM | 0.3 nM | – |
| C=CC(=O)Nc1ccc(N2CC(C3CCN(c4ccc5c(c4)-c4nc(N6C(=O)OC[C@H]6C(F)F)cn4CCO5)CC3)C2)cc1 [Compound 130] | 70 nM | 14 nM | – |
| C=CC(=O)Nc1ccc(N2CC(N3CCN(c4ccc5c(c4)-c4nc(N6C(=O)OC[C@H]6C)cn4CCO5)CC3)C2)cc1 [Compound 131] | 84 nM | 15 nM | – |
| CC#CC(=O)Nc1ccc(N2CC(N3CCN(c4ccc5c(c4)-c4nc(N6C(=O)OC[C@H]6C(F)F)cn4CCO5)CC3)C2)cc1 [Compound 132] | 45 nM | 3.3 nM | – |
| C=CC(=O)Nc1cnc(N2CC(N3CCN(c4ccc5c(c4)-c4nc(N6C(=O)OC[C@H]6C(F)F)cn4CCO5)CC3)C2)nc1 [Compound 133] | 4.3 nM | 0.4 nM | – |
| C=CC(=O)N1CCc2cc(N3CC(N4CCN(c5ccc6c(c5)-c5nc(N7C(=O)OC[C@H]7C(F)F)cn5CCO6)CC4)C3)ccc21 [Compound 134] | 2.7 nM | 0.2 nM | – |
| C=CC(=O)Nc1cc(N2CC(N3CCN(c4ccc5c(c4)-c4nc(N6C(=O)OC[C@H]6C(F)F)cn4CCO5)CC3)C2)n(C)n1 [Compound 135] | 16 nM | 1.5 nM | – |
| CC(C)(C)C=C(C#N)C(=O)Nc1ccc(N2CC(N3CCN(c4ccc5c(c4)-c4nc(N6C(=O)OC[C@H]6C(F)F)cn4CCO5)CC3)C2)cc1 [Compound 136] | 71 nM | 29 nM | – |
| CC(C)(N)C=C(C#N)C(=O)Nc1ccc(N2CC(N3CCN(c4ccc5c(c4)-c4nc(N6C(=O)OC[C@H]6C(F)F)cn4CCO5)CC3)C2)cc1 [Compound 137] | 0.6 nM | 0.1 nM | – |
| CC(C)(C=C(C#N)C(=O)Nc1ccc(N2CC(N3CCN(c4ccc5c(c4)-c4nc(N6C(=O)OC[C@H]6C(F)F)cn4CCO5)CC3)C2)cc1)N1CCOCC1 [Compound 138] | 109 nM | 35 nM | – |

| SMILES | IC50 [1, 3] | IC50 [2] | IC50 [1] |
| --- | --- | --- | --- |
| C=CC(=O)Nc1ccc(N2CC(N3CCN(c4ccc5c(c4)-c4nc(N6C(=O)OC[C@H]6C(F)F)cn4CCO5)CC3)C2)cc1C [Compound 139] | 6.7 nM | 0.6 nM | – |
| C=CC(=O)Nc1cc(C)c(N2CC(N3CCN(c4ccc5c(c4)-c4nc(N6C(=O)OC[C@H]6C(F)F)cn4CCO5)CC3)C2)cn1 [Compound 140] | 6 nM | 0.3 nM | – |
| CC(C)(C=C(C#N)C(=O)Nc1ccc(N2CC(N3CCN(c4ccc5c(c4)-c4nc(N6C(=O)OC[C@H]6C(F)F)cn4CCO5)CC3)C2)cc1)N1CC2(COC2)C1 [Compound 141] | 6.7 nM | 0.6 nM | – |
| C=CC(=O)Nc1ccc(N2CC(N3CCN(c4ccc5c(c4)-c4nc(N6C(=O)OC[C@H]6C(F)F)cn4CCO5)CC3)C2)cc1C(F)(F)F [Compound 142] | 8.3 nM | 0.5 nM | – |
| C=CC(=O)Nc1ccc(N2CC(N3CCN(c4ccc5c(c4)-c4nc(N6C(=O)OC[C@H]6C(F)F)cn4CCO5)CC3)C2)cc1C#N [Compound 143] | 2.2 nM | 0.1 nM | – |
| CC(C)C=C(C#N)C(=O)Nc1ccc(N2CC(N3CCN(c4ccc5c(c4)-c4nc(N6C(=O)OC[C@H]6C(F)F)cn4CCO5)CC3)C2)cc1 [Compound 144] | 55 nM | 22 nM | – |
| CNC(C)(C)C=C(C#N)C(=O)Nc1ccc(N2CC(N3CCN(c4ccc5c(c4)-c4nc(N6C(=O)OC[C@H]6C(F)F)cn4CCO5)CC3)C2)cc1 [Compound 145] | 0.6 nM | 0.1 nM | – |
| C=CC(=O)N(C)c1ccc(N2CC(N3CCN(c4ccc5c(c4)-c4nc(N6C(=O)OC[C@H]6C(F)F)cn4CCO5)CC3)C2)cc1 [Compound 146] | 75 nM | 6.6 nM | – |
| C=CC(=O)Nc1ccc(N2CC(N3CCN(c4ccc5c(c4)-c4nc(N6C(=O)OC[C@H]6C)cn4CCO5)CC3)C2)cn1 [Compound 147] | 29 nM | 1.5 nM | – |
| CN(C)C/C=C/C(=O)Nc1ccc(N2CC(N3CCN(c4ccc5c(c4)-c4nc(N6C(=O)OC[C@H]6C(F)F)cn4CCO5)CC3)C2)cn1 [Compound 148] | 10 nM | 0.2 nM | – |
| CC#CC(=O)Nc1ccc(N2CC(N3CCN(c4ccc5c(c4)-c4nc(N6C(=O)OC[C@H]6C(F)F)cn4CCO5)CC3)C2)c(F)c1 [Compound 149] | 115 nM | 16 nM | – |
| CN(C)C(C)(C)C=C(C#N)C(=O)Nc1ccc(N2CC(N3CCN(c4ccc5c(c4)-c4nc(N6C(=O)OC[C@H]6C(F)F)cn4CCO5)CC3)C2)cc1 [Compound 150] | 121 nM | 35 nM | – |
| C=CC(=O)Nc1ccc(N2CC(N3CCN(c4ccc5c(c4)-c4nc(N6C(=O)OC[C@H]6C(F)F)cn4CCO5)CC3)C2)c(C)n1 [Compound 151] | 5.6 nM | 0.3 nM | – |
| C#CC(=O)Nc1ccc(N2CC(N3CCN(c4ccc5c(c4)-c4nc(N6C(=O)OC[C@H]6C(F)F)cn4CCO5)CC3)C2)cc1 [Compound 152] | 49 nM | 9.7 nM | – |
| CN(C)CC#CC(=O)Nc1ccc(N2CC(N3CCN(c4ccc5c(c4)-c4nc(N6C(=O)OC[C@H]6C(F)F)cn4CCO5)CC3)C2)cc1 [Compound 153] | 10 nM | 0.8 nM | – |
| C=CC(=O)N1CCc2nc(N3CC(N4CCN(c5ccc6c(c5)-c5nc(N7C(=O)OC[C@H]7C(F)F)cn5CCO6)CC4)C3)sc2C1 [Compound 154] | 54 nM | 4.9 nM | – |
| C=CC(=O)N1CCc2sc(N3CC(N4CCN(c5ccc6c(c5)-c5nc(N7C(=O)OC[C@H]7C(F)F)cn5CCO6)CC4)C3)nc2C1 [Compound 155] | 44 nM | 5.1 nM | – |
| CN(C1CCC1)C(C)(C)C=C(C#N)C(=O)Nc1ccc(N2CC(N3CCN(c4ccc5c(c4)-c4nc(N6C(=O)OC[C@H]6C(F)F)cn4CCO5)CC3)C2)cc1 [Compound 156] | 49 nM | 19 nM | – |
| CC(C)=CC(=O)CCCCC(=O)N1CC(N2CCN(c3ccc4c(c3)-c3nc(N5C(=O)OC[C@H]5C(F)F)cn3CCO4)CC2)C1 [Compound 157] | 228 nM | 24 nM | – |
| CC(C)=CC(=O)CCCCC(=O)N1CCN(c2ccc3c(c2)-c2nc(N4C(=O)OC[C@H]4C(F)F)cn2CCO3)CC1 [Compound 158] | 249 nM | 321 nM | – |
| C=CC(=O)N1CCCc2cc(N3CC(N4CCN(c5ccc6c(c5)-c5nc(N7C(=O)OC[C@H]7C(F)F)cn5CCO6)CC4)C3)ccc21 [Compound 159] | 28 nM | 1.8 nM | – |
| C=CC(=O)Nc1ccc(C2CN(C3CCN(c4ccc5c(c4)-c4nc(N6C(=O)OC[C@H]6C(F)F)cn4CCO5)CC3)C2)cc1 [Compound 160] | 47 nM | 3.5 nM | – |
| C=CC(=O)Nc1ccc(N2CC(N3CCN(c4ccc5c(c4)-c4nc(N6C(=O)OC[C@H]6C(F)F)cn4CCO5)CC3)C2)nn1 [Compound 161] | 2.9 nM | 0.5 nM | – |
